Test results reported in PMC11872639 (Food Chemistry: Molecular Sciences, 2025).
Where two headings read alike, the source gives them in different places. One block for each compound: values may come before it.

Assays:
[1] = molecular target: T1, TAS1R2/TAS1R3 (Homo sapiens, UniProt Q7RTX0+Q8TE23); experiment: Calcium mobilization assay, HEK293T-Gα16gust44 cells expressing TAS1R2/TAS1R3; format: cell-based
T1 construct: we performed functional expression of the full-length heterodimeric sweet taste TAS1R2/TAS1R3 receptor using HEK293-derived cells; expressed in transfected cells; host or cells: HEK293T-Gα16gust44 cells transfected with pcDNA6-TAS1R2 and pcDNA4-TAS1R3
T1 sequence (Q8TE23 20-839): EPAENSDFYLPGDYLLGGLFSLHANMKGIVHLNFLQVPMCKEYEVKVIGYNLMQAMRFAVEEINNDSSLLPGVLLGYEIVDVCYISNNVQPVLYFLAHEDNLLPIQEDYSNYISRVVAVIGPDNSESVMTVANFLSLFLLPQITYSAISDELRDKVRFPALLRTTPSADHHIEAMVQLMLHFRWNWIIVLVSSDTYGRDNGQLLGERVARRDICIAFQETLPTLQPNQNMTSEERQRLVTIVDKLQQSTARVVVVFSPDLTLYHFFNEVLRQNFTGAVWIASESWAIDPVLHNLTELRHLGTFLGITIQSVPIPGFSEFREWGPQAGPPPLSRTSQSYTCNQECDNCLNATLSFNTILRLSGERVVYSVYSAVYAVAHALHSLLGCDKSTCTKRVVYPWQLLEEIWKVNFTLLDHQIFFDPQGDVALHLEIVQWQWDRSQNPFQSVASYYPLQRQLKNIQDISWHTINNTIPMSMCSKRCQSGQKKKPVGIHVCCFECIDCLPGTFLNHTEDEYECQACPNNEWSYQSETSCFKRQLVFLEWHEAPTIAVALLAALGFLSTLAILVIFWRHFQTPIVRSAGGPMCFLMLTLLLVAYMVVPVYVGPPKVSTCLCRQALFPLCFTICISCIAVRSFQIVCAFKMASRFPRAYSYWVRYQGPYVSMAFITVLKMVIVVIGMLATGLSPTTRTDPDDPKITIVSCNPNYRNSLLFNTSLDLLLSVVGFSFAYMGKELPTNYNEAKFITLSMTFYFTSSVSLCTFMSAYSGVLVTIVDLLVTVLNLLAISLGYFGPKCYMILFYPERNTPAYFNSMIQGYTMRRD
T1 sequence (Q7RTX0 21-852): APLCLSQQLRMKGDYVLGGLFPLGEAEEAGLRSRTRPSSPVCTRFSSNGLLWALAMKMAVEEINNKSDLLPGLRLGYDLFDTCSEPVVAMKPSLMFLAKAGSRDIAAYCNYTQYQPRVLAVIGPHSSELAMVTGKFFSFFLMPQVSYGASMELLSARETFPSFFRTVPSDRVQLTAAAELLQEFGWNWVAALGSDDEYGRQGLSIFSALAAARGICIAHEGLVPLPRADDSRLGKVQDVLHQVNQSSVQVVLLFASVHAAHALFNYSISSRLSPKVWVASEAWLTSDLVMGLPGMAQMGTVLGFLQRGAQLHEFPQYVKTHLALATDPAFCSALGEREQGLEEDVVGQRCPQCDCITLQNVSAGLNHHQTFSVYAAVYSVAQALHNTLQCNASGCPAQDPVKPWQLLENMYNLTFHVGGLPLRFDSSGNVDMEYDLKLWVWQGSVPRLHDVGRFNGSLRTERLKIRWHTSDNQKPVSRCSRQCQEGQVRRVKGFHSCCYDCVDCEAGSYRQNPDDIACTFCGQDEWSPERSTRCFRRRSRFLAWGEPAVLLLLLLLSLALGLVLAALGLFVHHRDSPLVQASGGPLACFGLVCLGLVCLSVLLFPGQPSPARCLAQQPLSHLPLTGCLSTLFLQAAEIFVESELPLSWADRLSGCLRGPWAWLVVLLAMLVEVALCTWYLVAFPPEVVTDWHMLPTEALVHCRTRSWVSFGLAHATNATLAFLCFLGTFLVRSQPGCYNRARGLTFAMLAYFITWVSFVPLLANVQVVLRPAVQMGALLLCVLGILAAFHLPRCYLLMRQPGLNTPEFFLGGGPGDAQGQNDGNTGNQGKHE
Method: (§1) The synthetic cDNA optimized for human TAS1R2 and TAS1R3 expression was cloned into the pcDNA6-myc-HisA and pcDNA4-myc-HisA vectors, generating the pcDNA6-TAS1R2 and pcDNA4-TAS1R3 plasmids, respectively (Genewiz).
(§2) The stable HEK293T-Gα16gust44 cells were constructed by stable transfection of pcDNA3.1/Hygro-Gα16gust44 plasmid into HEK293T cells using Lipofectamine 2000 (Invitrogen). After 48 h, the cells were selected with 400 μg/mL hygromycin for 2–3 weeks. Thirty individual hygromycin-resistant colonies were expanded and screened for functional expression after transient co-transfection with pcDNA6-TAS1R2 and pcDNA4-TAS1R3 and measurement of calcium responses to sucralose. In the same way, clone selection was done under zeocin selection (250 μg/mL) to generate a stable HEK293T-Gα16gust44-TAS1R3 cell line for further calcium mobilization assays.
(§3) Forty-eight hours before the assay, HEK293T-Gα16gust44 or HEK293T-Gα16gust44-TAS1R3 cells were plated (4 × 10^4 cells/well) on poly-D-lysine-coated 96-well plates. Twenty-four hours later, cells were transiently transfected with pcDNA6-TAS1R2 and pcDNA4-TAS1R3 with Lipofectamine 2000 according to the manufacturer's instructions. As a negative control, HEK293T cells were mock-transfected with the empty expression vector. […] The fluorescence intensity was measured for 90 s after the addition of the compounds. […] All concentration-receptor combinations were measured in triplicate, and each experiment was repeated at least four times. The Ca^2+ changes are expressed as fractional changes in fluorescence light intensity: ΔF/F0 = (F—F0)/F0, where F is the fluorescence light intensity at each point and F0 is the value of emitted fluorescent light before the stimulus application. For the calculation of dose-response relationships, the changes in fluorescence upon stimulus application were averaged, mock-subtracted and baseline-corrected. The resulting dose-response data were fitted using a four-parameter logistic equation. The half-maximal effective concentrations (EC50 values) were calculated using SigmaPlot software.

[2] = molecular target: T2, TAS1R3 (Homo sapiens, UniProt Q7RTX0); experiment: Calcium mobilization assay, HEK293T-Gα16gust44 cells stably expressing TAS1R3 alone; format: cell-based
T2 construct: we performed functional expression of the full-length heterodimeric sweet taste TAS1R2/TAS1R3 receptor using HEK293-derived cells; expressed in transfected cells
T2 sequence (Q7RTX0 21-852): T1 sequence (Q7RTX0 21-852)
Method: as §1, §2, §3

[3] = molecular target: T3, TAS1R3-VFT (Homo sapiens, UniProt Q7RTX0); experiment: Ligand binding by intrinsic tryptophan fluorescence, TAS1R3-VFT
T3 construct: pET28-TAS1R3-VFT encodes an N-terminal His6-tag followed by TAS1R3-VFT (Ala21-Ser497) and the Strep-tag II; made in house
T3 sequence (Q7RTX0 21-497): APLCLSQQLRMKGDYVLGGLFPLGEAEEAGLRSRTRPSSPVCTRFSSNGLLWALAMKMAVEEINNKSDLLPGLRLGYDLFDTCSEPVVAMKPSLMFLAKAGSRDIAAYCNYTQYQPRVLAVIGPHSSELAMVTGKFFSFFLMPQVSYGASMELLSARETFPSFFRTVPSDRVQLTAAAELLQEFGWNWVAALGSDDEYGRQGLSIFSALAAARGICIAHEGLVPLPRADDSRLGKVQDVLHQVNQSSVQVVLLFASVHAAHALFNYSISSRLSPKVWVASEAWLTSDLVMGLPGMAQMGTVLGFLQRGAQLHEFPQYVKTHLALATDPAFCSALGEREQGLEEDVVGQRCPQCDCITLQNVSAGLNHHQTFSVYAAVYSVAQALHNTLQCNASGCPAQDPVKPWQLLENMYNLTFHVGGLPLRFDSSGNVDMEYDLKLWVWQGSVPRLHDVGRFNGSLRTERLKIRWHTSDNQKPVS
Method: (§4) The intrinsic fluorescence of TAS1R-VFTs was measured using a Cary Eclipse spectrofluorometer (Varian Instruments, Palo Alto, CA, USA) equipped with a Peltier temperature control unit. […] Ligand solutions were freshly prepared in the same buffer. […] The temperature was kept constant at 20 °C. Fluorescence measurements were corrected for dilution, bleaching and nonspecific buffer quenching. Kd values and standard errors were calculated from a plot of the ratio between the fluorescence intensity variation and the maximum of fluorescence intensity variation versus concentration of total ligand, obtained with a standard non-linear regression method and using a one-site saturation ligand binding equation within SigmaPlot software (version 15.0, Grafiti, Palo Alto, CA, USA). […] The Kd values of ligand-receptor interactions were determined using the equation ΔF/ΔFmax = Bmax [L]/(Kd + [L]), where Kd is the apparent dissociation constant, ΔF is the difference between the fluorescence intensity at a given concentration of ligand and the fluorescence intensity in the absence of ligand, ΔFmax is the difference at infinite ligand concentration [L], Bmax is the maximum fluorescence signal, and [L] corresponds to the concentration of ligands. The reported Kd values are the average of six measurements performed on at least three independently refolded protein samples. All compounds were obtained from Sigma-Aldrich. Statistical analyses: Dunnett's test (p ≤ 0.05) was used to determine the statistical significance between data means.

[4] = molecular target: T4, TAS1R1-VFT (Homo sapiens, UniProt Q7RTX1); experiment: Ligand binding by intrinsic tryptophan fluorescence, TAS1R1-VFT
T4 construct: followed by TAS1R1-VFT (Phe21-Ser495) or TAS1R2-VFT (Ala22-Ser493) and a second His6-tag; His6-tag (thrombin-cleavable) (N); made in house
T4 sequence (Q7RTX1 21-495): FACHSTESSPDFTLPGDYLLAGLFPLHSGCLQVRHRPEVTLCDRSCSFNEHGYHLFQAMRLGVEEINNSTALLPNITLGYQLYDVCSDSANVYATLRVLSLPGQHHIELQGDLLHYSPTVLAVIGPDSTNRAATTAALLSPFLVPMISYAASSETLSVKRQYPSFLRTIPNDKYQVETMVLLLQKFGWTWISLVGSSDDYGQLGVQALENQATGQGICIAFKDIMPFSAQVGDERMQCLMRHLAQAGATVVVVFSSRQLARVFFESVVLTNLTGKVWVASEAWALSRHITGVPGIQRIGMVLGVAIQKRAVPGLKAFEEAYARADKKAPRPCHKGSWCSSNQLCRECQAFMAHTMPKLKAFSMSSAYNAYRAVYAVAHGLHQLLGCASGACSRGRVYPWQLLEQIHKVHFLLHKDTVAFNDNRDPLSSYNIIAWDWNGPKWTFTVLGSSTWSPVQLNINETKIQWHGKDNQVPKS
Method: as §4, with “All compounds were obtained from Sigma-Aldrich. Statistical analyses: Dunnett's test (p ≤ 0.05) was used to determine the statistical significance between data means.” left out

[5] = sweet compound alone (Fig. 3, IMP series)
[6] = sweet compound alone (Fig. 5c,d, MSG series)

SMILES: [Ca+2].[Cl-].[Cl-] [CaCl2]
EC50 ([1]; CaCl2 alone, TAS1R2/TAS1R3): 28000 ± 3000 µM
max (maximal amplitude, ΔF/F0) ([1]; CaCl2 alone, TAS1R2/TAS1R3): 0.40
max (maximal amplitude, ΔF/F0) ([1]; CaCl2 in the presence of 10 mM IMP, TAS1R2/TAS1R3): 0.28
max (maximal amplitude, ΔF/F0) ([1]; CaCl2 in the presence of 10 mM cyclamate, TAS1R2/TAS1R3): 0.19
EC50 ([2]; CaCl2 alone, TAS1R3 alone): 47 ± 13 mM
max (maximal amplitude, ΔF/F0) ([2]; CaCl2 alone, TAS1R3 alone): 0.37
max (maximal amplitude, ΔF/F0) ([2]; CaCl2 in the presence of 10 mM IMP, TAS1R3 alone): 0.17
max (maximal amplitude, ΔF/F0) ([2]; CaCl2 in the presence of 10 mM cyclamate, TAS1R3 alone): 0.14

SMILES: O=S(=O)(O)NC1CCCCC1 [Cyclamate, cyclamate]
EC50 [1, 5]: 2310 ± 954 µM
amplitude of the maximum calcium-induced response of TAS1R3 reduced to ([2]; modulator at 10 mM, CaCl2 stimulation): ~62%

SMILES: N[C@H](CCC(=O)O)C(=O)O [D-Glu, D-glutamate]
Kd TAS1R3-VFT ([3]; ligand alone, absence of IMP, mean ± SEM, 20 °C, pH 8.0): nb
impact on the fluorescence intensity of TAS1R3-VFT ([3]; negative control): no significant impact
impact on the fluorescence intensity of TAS1R1-VFT ([4]; negative control): no significant impact

SMILES: N[C@@H](CC(=O)O)C(=O)O [L-Asp, L-aspartate]
Kd ([3]; read-out: Kd TAS1R3-VFT): 1180 ± 330 nM
Kd [4]: 210 ± 60 nM

SMILES: N[C@@H](CCC(=O)O)C(=O)O [L-Glu, L-glutamate]
Kd [3]: 750 ± 200 nM

Other lines, results leading:

EC50 [1, 5]: 24 ± 2 µM
SMILES: C=C(C)C1CC=C(/C=N/O)CC1 (stereo in doubt) [Perillartine, perillartine]

EC50 [1, 5]: 41 ± 29 µM
SMILES: COc1ccc(CCC(=O)c2c(O)cc(O[C@@H]3O[C@H](CO)[C@@H](O)[C@H](O)[C@H]3O[C@@H]3O[C@@H](C)[C@H](O)[C@@H](O)[C@H]3O)cc2O)cc1O [NHDC, neohesperidine dihydrochalcone]

EC50 [1, 5]: 0.97 ± 0.12 µM
EC50 ([1]; sweet compound alone (Fig. 5a,b, GMP series)): 0.3 ± 0.08 µM
EC50 [1, 6]: 1.09 ± 0.16 µM
SMILES: COC(=O)[C@H](Cc1ccccc1)NC(=O)[C@H](CC(=O)O)NCCC(C)(C)C [Neotame, neotame]

EC50 [1, 5]: 57 ± 13 µM
EC50 [1, 6]: 56 ± 6 µM
decrease in EC50 values by IMP (synergistic effect) ([1]; sweetener with IMP vs sweetener alone): 3 fold
SMILES: OC[C@H]1O[C@H](O[C@]2(CCl)O[C@H](CCl)[C@@H](O)[C@@H]2O)[C@H](O)[C@@H](O)[C@H]1Cl [Sucralose, sucralose]
